Like-named read-outs stand apart in the source and are kept apart here.
Legend:
Botrytis cinerea [1] = assay: In vivo preventive test on Botrytis cinerea (grey mould) on gherkin, Examples B, Q1 and R2
Pyrenophora teres = assay: In vivo preventive test on Pyrenophora teres (net blotch on barley), Examples D, Q2 and R4
Septoria tritici [2] = assay: In vivo preventive test on Septoria tritici (leaf spot on wheat), Examples E, Q3 and R5; conditions: for Efficacy in %: Example Q3
Botrytis cinerea [3] = assay: In vitro test for the calculation of the ED50-value with microorganisms, Example Q4: Botrytis cinerea; format: cell-based; conditions: liquid culture, spore suspension, 4 to 7 days incubation, spectrometric measurement of mycelium growth
Leptosphaeria nodorum [4] = assay: In vitro test for the calculation of the ED50-value with microorganisms, Example Q4: Leptosphaeria nodorum; format: cell-based; conditions: liquid culture, spore suspension, 4 to 7 days incubation, spectrometric measurement of mycelium growth
Septoria tritici [5] = assay: In vitro test for the calculation of the ED50-value with microorganisms, Example Q4: Septoria tritici; format: cell-based; conditions: liquid culture, spore suspension, 4 to 7 days incubation, spectrometric measurement of mycelium growth
Fusarium culmorum [6] = assay: In vitro test for the calculation of the ED50-value with microorganisms, Example Q4: Fusarium culmorum; format: cell-based; conditions: liquid culture, spore suspension, 4 to 7 days incubation, spectrometric measurement of mycelium growth
Description: • Solvent: Dimethyl sulfoxide • Culture medium: 14.6 g anhydrous D-glucose (VWR), 7.1 g Mycological Peptone (Oxoid), 1.4 g granulated Yeast Extract (Merck), QSP liter • Inoculum: Spore suspension
Fungicides were solubilized in DMSO and the solution used to prepare the required range of concentrations. The final concentration of DMSO used in the assay was ≤1%.
A spore suspension was prepared and diluted to the desired spore density.
Fungicides were evaluated for their ability to inhibit spore germination and mycelium growth in liquid culture assay. The compounds were added in the desired concentration to the culture medium with spores. After 4 to 7 days incubation, fungi-toxicity of compounds was determined by spectrometric measurement of mycelium growth. Inhibition of fungal growth was determined by comparing the absorbance values in wells containing the fungicides with the absorbance in control wells without fungicides.

[7] = Measurement of LogP values by HPLC on reversed phase columns (EEC directive 79/831 Annex V.A8); format: physicochemical; conditions: method [a]: LC-UV, acidic range, 0.1% formic acid in water and acetonitrile as eluent; Table 1
Description: Measurement of Log P values was performed as outlined above.

Puccinia recondita = assay: In vivo preventive test on Puccinia recondita (brown rust on wheat), Examples C and R3; conditions: Puccinia recondita, 264 h, preventive spray, evaluated 11 days after inoculation
Sphaerotheca fuliginea = assay: In vivo preventive test on Sphaerotheca fuliginea (powdery mildew on cucurbits), Examples F and R6; conditions: Podosphaera fuliginea, 360 h; 500 ppm of active ingredient; gherkin, preventive spray, evaluated 15 days after inoculation; read-out: efficacy
Uromyces appendiculatus = assay: In vivo preventive test on Uromyces appendiculatus (bean rust), Examples G and R7; conditions: 264 h, preventive spray, evaluated 11 days after inoculation
Alternaria solani = assay: In vivo preventive Alternaria test (tomatoes), Example H; conditions: 72 h, 100 ppm of active ingredient, preventive spray, evaluated 3 days after inoculation, read-out: efficacy
Phakopsora pachyrhizi = assay: In vivo preventive Phakopsora test (soybeans), Example I; conditions: 168 h, 100 ppm of active ingredient, preventive spray, evaluated 7 days after inoculation, read-out: efficacy
[8] = test system: Blumeria graminis fsp. hordei; assay: In vivo preventive Blumeria test (barley), Example K; conditions: 168 h, 500 ppm of active ingredient, preventive spray, evaluated 7 days after inoculation, read-out: efficacy
Description: After the spray coating has been dried, the plants are dusted with spores of Blumeria graminis fsp. hordei.

Fusarium culmorum [9] = assay: In vivo preventive Fusarium culmorum test (wheat), Example L; conditions: 120 h, 500 ppm of active ingredient, preventive spray, evaluated 5 days after inoculation, read-out: efficacy
Description: After the spray coating has been dried, the plants are slightly injured by using a sandblast and afterwards they are sprayed with a conidia suspension of Fusarium culmorum.
The test is evaluated 5 days after the inoculation.

Fusarium graminearum = assay: whole plant or invertebrate; format: in vivo; conditions: in Hordeum vulgare, 120 h, read-out: efficacy
Leptosphaeria nodorum [10] = assay: In vivo preventive Leptosphaeria nodorum test (wheat), Example N; conditions: Parastagonospora nodorum, 192 h, 500 ppm of active ingredient, preventive spray, evaluated 8 days after inoculation, read-out: efficacy
Description: After the spray coating has been dried, the plants are sprayed with a spore suspension of Leptosphaeria nodorum.

[11] = test system: Fusarium nivale (var. majus); assay: In vivo preventive Fusarium nivale (var. majus) test (wheat), Example O; conditions: Microdochium nivale, 120 h, 500 ppm of active ingredient, preventive spray, evaluated 5 days after inoculation, read-out: efficacy
Description: After the spray coating has been dried, the plants are slightly injured by using a sandblast and afterwards they are sprayed with a conidia suspension of Fusarium nivale (var. majus).

Pyricularia oryzae = assay: whole plant or invertebrate; format: in vivo; conditions: 192 h, read-out: efficacy
Venturia inaequalis = assay: In vivo preventive Venturia test (apples), Example J; conditions: 240 h, read-out: efficacy
Description: After the spray coating has dried on, the plants are inoculated with an aqueous conidia suspension of the causal agent of apple scab (Venturia inaequalis) and then remain for 1 day in an incubation cabinet at approximately 20° C. and a relative atmospheric humidity of 100%.
The plants are then placed in a greenhouse at approximately 21° C. and a relative atmospheric humidity of approximately 90%.
The test is evaluated 10 days after the inoculation.

Alternaria brassicae = assay: In vivo preventive test on Alternaria brassicae (leaf spot on radish), Examples A and R1; conditions: Alternaria brassicae, 144 h, 500 ppm of active ingredient, preventive spray, evaluated 6 days after inoculation, read-out: efficacy
[12] = Botrytis cinerea, 500 ppm of active ingredient, preventive spray, evaluated 4 to 5 days after inoculation, read-out: efficacy
[13] = 500 ppm of active ingredient, wheat, read-out: efficacy
[14] = Pyrenophora teres, 336 h, 500 ppm of active ingredient, preventive spray, evaluated 14 days after inoculation, read-out: efficacy
[15] = Zymoseptoria tritici, 576 h, 500 ppm of active ingredient, wheat, preventive spray, evaluated 24 days after inoculation, read-out: efficacy
[16] = 500 ppm of active ingredient, bean, read-out: efficacy

Structure (SMILES): OC(Cc1ccc(Cl)cc1F)(Cn1ccnc1)C1(Cl)CC1 (racemic) [reference compound]
- Efficacy in % (Botrytis cinerea [1]; Example Q1, rate of application 100 ppm): 70%
- Efficacy in % (Botrytis cinerea [1]; Example Q1, rate of application 500 ppm): 100%
- Efficacy in % (Pyrenophora teres; Example Q2, rate of application 100 ppm): 0%
- Efficacy in % (Pyrenophora teres; Example Q2, rate of application 500 ppm): 0%
- Efficacy in % (Septoria tritici [2]; rate of application 100 ppm, wheat): 0%
- Efficacy in % (Septoria tritici [2]; rate of application 500 ppm, wheat): 100%
- Botrytis cinerea ED50 value in ppm (Botrytis cinerea [3]): 0.53 ppm
- Leptosphaeria nodorum ED50 value in ppm (Leptosphaeria nodorum [4]): 0.04 ppm
- Septoria tritici ED50 value in ppm (Septoria tritici [5]): 0.02 ppm
- Fusarium culmorum ED50 value in ppm (Fusarium culmorum [6]): 0.04 ppm

Structure (SMILES): N#Cc1cncn1CC(O)(Cc1ccccc1Cl)C1(Cl)CC1 (stereo not drawn) [Example I-06, 1-[2-(1-chlorocyclopropyl)-3-(2-chlorophenyl)-2-hydroxypropyl]-1H-imidazole-5-carbonitrile]
- chromatographic logP [7]: 2.92
- pest or weed control at 500 ppm (Botrytis cinerea [1]; [12]): 90 to 100%
- pest or weed control at 100 ppm (Botrytis cinerea [1]; Botrytis cinerea, Example R2, rate of application 100 ppm, read-out: Efficacy in %): 80%
- pest or weed control at 500 ppm (Botrytis cinerea [1]; Botrytis cinerea, Example R2, rate of application 500 ppm, read-out: Efficacy in %): 97%
- pest or weed control at 500 ppm (Puccinia recondita; [13]): 90 to 100%
- pest or weed control at 100 ppm (Puccinia recondita; Example R3, wheat, 100 ppm, read-out: Efficacy in %): 89%
- pest or weed control at 500 ppm (Puccinia recondita; Example R3, wheat, 500 ppm, read-out: Efficacy in %): 94%
- pest or weed control at 500 ppm (Pyrenophora teres; [14]): 90 to 100%
- pest or weed control at 100 ppm (Pyrenophora teres; Pyrenophora teres, 336 h, Example R4, rate of application 100 ppm, read-out: Efficacy in %): 86%
- pest or weed control at 500 ppm (Pyrenophora teres; Pyrenophora teres, 336 h, Example R4, rate of application 500 ppm, read-out: Efficacy in %): 93%
- pest or weed control at 500 ppm (Septoria tritici [2]; [15]): 90 to 100%
- pest or weed control at 100 ppm (Septoria tritici [2]; Zymoseptoria tritici, 576 h, Example R5, wheat, preventive spray, 100 ppm, evaluated 24 days after inoculation, read-out: Efficacy in %): 98%
- pest or weed control at 500 ppm (Septoria tritici [2]; Zymoseptoria tritici, 576 h, Example R5, wheat, preventive spray, 500 ppm, evaluated 24 days after inoculation, read-out: Efficacy in %): 100%
- pest or weed control at 500 ppm (Sphaerotheca fuliginea): 90 to 100%
- pest or weed control at 500 ppm (Uromyces appendiculatus; [16]): 90 to 100%
- pest or weed control at 100 ppm (Uromyces appendiculatus; Example R7, bean, 100 ppm, read-out: Efficacy in %): 100%
- pest or weed control at 500 ppm (Uromyces appendiculatus; Example R7, bean, 500 ppm, read-out: Efficacy in %): 100%
- pest or weed control at 100 ppm (Alternaria solani): 90 to 100%
- pest or weed control at 100 ppm (Phakopsora pachyrhizi): 90 to 100%
- pest or weed control at 500 ppm [8]: 90 to 100%
- pest or weed control at 500 ppm (Fusarium culmorum [9]): 90 to 100%
- pest or weed control at 500 ppm (Fusarium graminearum): 90 to 100%
- pest or weed control at 500 ppm (Leptosphaeria nodorum [10]): 90 to 100%
- pest or weed control at 500 ppm [11]: 90 to 100%
- pest or weed control at 500 ppm (Pyricularia oryzae): 90 to 100%
- pest or weed control at 100 ppm (Venturia inaequalis): 80 to 89%

Structure (SMILES): OC(Cc1ccccc1Cl)(Cn1cncc1F)C1(Cl)CC1 (stereo not drawn) [Example I-16]
- chromatographic logP [7]: 1.94
- pest or weed control at 500 ppm (Alternaria brassicae): 90 to 100%
- pest or weed control at 500 ppm (Botrytis cinerea [1]; [12]): 90 to 100%
- pest or weed control at 500 ppm (Puccinia recondita; [13]): 80 to 89%
- pest or weed control at 500 ppm (Pyrenophora teres; [14]): 90 to 100%
- pest or weed control at 500 ppm (Septoria tritici [2]; [15]): 90 to 100%
- pest or weed control at 500 ppm (Sphaerotheca fuliginea): 90 to 100%
- pest or weed control at 500 ppm (Uromyces appendiculatus; [16]): 90 to 100%
- pest or weed control at 100 ppm (Alternaria solani): 90 to 100%
- pest or weed control at 100 ppm (Phakopsora pachyrhizi): 90 to 100%
- pest or weed control at 500 ppm [8]: 90 to 100%
- pest or weed control at 500 ppm (Fusarium culmorum [9]): 90 to 100%
- pest or weed control at 500 ppm (Fusarium graminearum): 80 to 89%
- pest or weed control at 500 ppm (Leptosphaeria nodorum [10]): 90 to 100%
- pest or weed control at 500 ppm [11]: 90 to 100%
- pest or weed control at 500 ppm (Pyricularia oryzae): 90 to 100%
- pest or weed control at 100 ppm (Venturia inaequalis): 90 to 100%

Structure (SMILES): OC(Cc1cc(F)ncc1Cl)(Cn1cncc1Cl)C1(Cl)CC1 (stereo not drawn) [Example I-18]
- chromatographic logP [7]: 2.01
- pest or weed control at 500 ppm (Alternaria brassicae): 70 to 79%
- pest or weed control at 500 ppm (Botrytis cinerea [1]; [12]): 90 to 100%
- pest or weed control at 500 ppm (Puccinia recondita; [13]): 90 to 100%
- pest or weed control at 500 ppm (Pyrenophora teres; [14]): 90 to 100%
- pest or weed control at 500 ppm (Septoria tritici [2]; [15]): 90 to 100%
- pest or weed control at 500 ppm (Sphaerotheca fuliginea): 90 to 100%
- pest or weed control at 500 ppm (Uromyces appendiculatus; [16]): 90 to 100%
- pest or weed control at 100 ppm (Alternaria solani): 90 to 100%
- pest or weed control at 100 ppm (Phakopsora pachyrhizi): 90 to 100%
- pest or weed control at 500 ppm [8]: 90 to 100%
- pest or weed control at 500 ppm (Fusarium culmorum [9]): 80 to 89%
- pest or weed control at 500 ppm (Fusarium graminearum): 90 to 100%
- pest or weed control at 500 ppm (Leptosphaeria nodorum [10]): 90 to 100%
- pest or weed control at 500 ppm [11]: 90 to 100%
- pest or weed control at 500 ppm (Pyricularia oryzae): 90 to 100%
- pest or weed control at 100 ppm (Venturia inaequalis): 90 to 100%

Structure (SMILES): N#Cc1cncn1CC(O)(Cc1ccccc1)C1(Cl)CC1 (stereo not drawn) [Example I-65]
- chromatographic logP [7]: 2.64
- pest or weed control at 500 ppm (Botrytis cinerea [1]; [12]): 90 to 100%
- pest or weed control at 500 ppm (Puccinia recondita; [13]): 90 to 100%
- pest or weed control at 500 ppm (Pyrenophora teres; [14]): 90 to 100%
- pest or weed control at 500 ppm (Septoria tritici [2]; [15]): 80 to 89%
- pest or weed control at 500 ppm (Sphaerotheca fuliginea): 90 to 100%
- pest or weed control at 500 ppm (Uromyces appendiculatus; [16]): 90 to 100%
- pest or weed control at 100 ppm (Alternaria solani): 90 to 100%
- pest or weed control at 100 ppm (Phakopsora pachyrhizi): 90 to 100%
- pest or weed control at 500 ppm [8]: 90 to 100%
- pest or weed control at 500 ppm (Fusarium culmorum [9]): 90 to 100%
- pest or weed control at 500 ppm (Fusarium graminearum): 90 to 100%
- pest or weed control at 500 ppm (Leptosphaeria nodorum [10]): 80 to 89%
- pest or weed control at 500 ppm [11]: 90 to 100%
- pest or weed control at 500 ppm (Pyricularia oryzae): 90 to 100%
- pest or weed control at 100 ppm (Venturia inaequalis): 80 to 89%

Structure (SMILES): N#Cc1cncn1CC(O)(Cc1ccc(F)cc1)C1(Cl)CC1 (stereo not drawn) [Example I-157]
- chromatographic logP [7]: 2.75
- pest or weed control at 500 ppm (Botrytis cinerea [1]; [12]): 90 to 100%
- pest or weed control at 500 ppm (Puccinia recondita; [13]): 90 to 100%
- pest or weed control at 500 ppm (Pyrenophora teres; [14]): 90 to 100%
- pest or weed control at 500 ppm (Septoria tritici [2]; [15]): 90 to 100%
- pest or weed control at 500 ppm (Sphaerotheca fuliginea): 90 to 100%
- pest or weed control at 500 ppm (Uromyces appendiculatus; [16]): 90 to 100%
- pest or weed control at 100 ppm (Alternaria solani): 80 to 89%
- pest or weed control at 100 ppm (Phakopsora pachyrhizi): 90 to 100%
- pest or weed control at 500 ppm [8]: 90 to 100%
- pest or weed control at 500 ppm (Fusarium culmorum [9]): 90 to 100%
- pest or weed control at 500 ppm (Fusarium graminearum): 90 to 100%
- pest or weed control at 500 ppm (Leptosphaeria nodorum [10]): 80 to 89%
- pest or weed control at 500 ppm [11]: 80 to 89%
- pest or weed control at 500 ppm (Pyricularia oryzae): 90 to 100%
- pest or weed control at 100 ppm (Venturia inaequalis): 90 to 100%
